Results: PubChem BioAssay (NCI)
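48-hour exposure; five concentrations; linearly interpolated endpoints. Abbreviation: GI50, concentration required for 50% inhibition of growth. TGI denotes the concentration required for complete inhibition of growth.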

Key:
Test in all cases: NCI anticancer screen, dose series, 48 h; in the data active = GI50 below about 0.43 µM; inactive = the rest
OVCAR-4 ovarian = tested on: OVCAR-4 ovarian
OVCAR-8 ovarian = tested on: OVCAR-8 ovarian
LOX IMVI melanoma = tested on: LOX IMVI melanoma
786-0 renal = tested on: 786-0 renal
MALME-3M melanoma = tested on: MALME-3M melanoma
NCI-H460 lung = tested on: NCI-H460 lung
IGROV1 ovarian = tested on: IGROV1 ovarian
BT-549 breast = tested on: BT-549 breast
HCC-2998 colon = tested on: HCC-2998 colon
SNB-19 CNS = tested on: SNB-19 CNS
SR leukemia = tested on: SR leukemia
COLO 205 colon = tested on: COLO 205 colon
NCI/ADR-RES ovarian = tested on: NCI/ADR-RES ovarian
M14 melanoma = tested on: M14 melanoma
UACC-62 melanoma = tested on: UACC-62 melanoma
HCT-15 colon = tested on: HCT-15 colon
PC-3 prostate = tested on: PC-3 prostate
HT29 colon = tested on: HT29 colon
UO-31 renal = tested on: UO-31 renal
TK-10 renal = tested on: TK-10 renal
HOP-62 NSCLC = tested on: HOP-62 NSCLC
KM12 colon = tested on: KM12 colon
MDA-MB-435 = tested on: MDA-MB-435
K-562 leukemia = tested on: K-562 leukemia
SF-268 CNS = tested on: SF-268 CNS
NCI-H23 lung = tested on: NCI-H23 lung
HS 578T breast = tested on: HS 578T breast
MDA-MB-231 breast = tested on: MDA-MB-231 breast
MCF7 breast = tested on: MCF7 breast
SK-MEL-2 melanoma = tested on: SK-MEL-2 melanoma
HOP-92 NSCLC = tested on: HOP-92 NSCLC
SW-620 colon = tested on: SW-620 colon
T-47D breast = tested on: T-47D breast
SN12C renal = tested on: SN12C renal
SNB-75 CNS = tested on: SNB-75 CNS
SF-295 CNS = tested on: SF-295 CNS
RXF 393 renal = tested on: RXF 393 renal
SK-MEL-28 melanoma = tested on: SK-MEL-28 melanoma
SF-539 CNS = tested on: SF-539 CNS
RPMI-8226 leukemia = tested on: RPMI-8226 leukemia
OVCAR-3 ovarian = tested on: OVCAR-3 ovarian
HCT-116 colon = tested on: HCT-116 colon
DU-145 prostate = tested on: DU-145 prostate
SK-OV-3 ovarian = tested on: SK-OV-3 ovarian
CAKI-1 renal = tested on: CAKI-1 renal
ACHN renal = tested on: ACHN renal
A498 renal = tested on: A498 renal
U251 CNS = tested on: U251 CNS
HL-60(TB) leukemia = tested on: HL-60(TB) leukemia
SK-MEL-5 melanoma = tested on: SK-MEL-5 melanoma
NCI-H226 lung = tested on: NCI-H226 lung
MOLT-4 leukemia = tested on: MOLT-4 leukemia
OVCAR-5 ovarian = tested on: OVCAR-5 ovarian
CCRF-CEM leukemia = tested on: CCRF-CEM leukemia
UACC-257 melanoma = tested on: UACC-257 melanoma
NCI-H522 lung = tested on: NCI-H522 lung
EKVX NSCLC = tested on: EKVX NSCLC
A549 NSCLC = tested on: A549 NSCLC

Fc1ccc2[nH]c3c(NCCCN4CCOCC4)ncnc3c2c1
99.4 µM: TGI (BT-549 breast)
40.4 µM: TGI (UACC-62 melanoma)
42.4 µM: TGI (COLO 205 colon)
> 100 µM: TGI (OVCAR-4 ovarian) | TGI (OVCAR-8 ovarian) | TGI (LOX IMVI melanoma) | TGI (786-0 renal) | TGI (NCI-H460 lung) | TGI (IGROV1 ovarian) | TGI (HCC-2998 colon) | TGI (SNB-19 CNS) | TGI (SR leukemia) | TGI (NCI/ADR-RES ovarian) | TGI (M14 melanoma) | TGI (HCT-15 colon) | TGI (PC-3 prostate) | TGI (HT29 colon) | TGI (UO-31 renal) | TGI (TK-10 renal) | TGI (HOP-62 NSCLC) | TGI (KM12 colon) | TGI (MDA-MB-435) | TGI (K-562 leukemia) | TGI (SF-268 CNS) | TGI (NCI-H23 lung) | TGI (HS 578T breast) | TGI (MDA-MB-231 breast) | TGI (MCF7 breast) | TGI (SK-MEL-2 melanoma) | TGI (SW-620 colon) | TGI (T-47D breast) | TGI (SN12C renal) | TGI (SNB-75 CNS) | TGI (SF-295 CNS) | TGI (RXF 393 renal) | TGI (SK-MEL-28 melanoma) | TGI (RPMI-8226 leukemia) | TGI (OVCAR-3 ovarian) | TGI (HCT-116 colon) | TGI (DU-145 prostate) | TGI (SK-OV-3 ovarian) | TGI (CAKI-1 renal) | TGI (ACHN renal) | TGI (A498 renal) | TGI (U251 CNS) | TGI (HL-60(TB) leukemia) | TGI (NCI-H226 lung) | TGI (MOLT-4 leukemia) | TGI (OVCAR-5 ovarian)
73.1 µM: TGI (SK-MEL-5 melanoma)
inactive: GI50 (OVCAR-4 ovarian) 65.8 µM | GI50 (OVCAR-8 ovarian) 66.8 µM | GI50 (LOX IMVI melanoma) 30.7 µM | GI50 (786-0 renal) > 100 µM | GI50 (MALME-3M melanoma) 27.4 µM | GI50 (NCI-H460 lung) 38.5 µM | GI50 (IGROV1 ovarian) 49.1 µM | GI50 (BT-549 breast) 22.5 µM | GI50 (HCC-2998 colon) 61.4 µM | GI50 (SNB-19 CNS) > 100 µM | GI50 (SR leukemia) 28.8 µM | GI50 (COLO 205 colon) 20.7 µM | GI50 (NCI/ADR-RES ovarian) > 100 µM | GI50 (M14 melanoma) 36 µM | GI50 (UACC-62 melanoma) 17.5 µM | GI50 (HCT-15 colon) 32.1 µM | GI50 (PC-3 prostate) 65.7 µM | GI50 (HT29 colon) 29 µM | GI50 (UO-31 renal) 33 µM | GI50 (TK-10 renal) 66.4 µM | GI50 (HOP-62 NSCLC) 42.8 µM | GI50 (KM12 colon) 48.8 µM | GI50 (MDA-MB-435) 51 µM | GI50 (K-562 leukemia) 26.2 µM | GI50 (SF-268 CNS) 88.2 µM | GI50 (NCI-H23 lung) 51.4 µM | GI50 (HS 578T breast) 41.9 µM | GI50 (MDA-MB-231 breast) 23.6 µM | GI50 (MCF7 breast) 41.5 µM | GI50 (SK-MEL-2 melanoma) 52 µM | GI50 (HOP-92 NSCLC) 13.5 µM | GI50 (SW-620 colon) 40.8 µM | GI50 (T-47D breast) 35.7 µM | GI50 (SN12C renal) 77.8 µM | GI50 (SNB-75 CNS) 37.5 µM | GI50 (SF-295 CNS) 61.2 µM | GI50 (RXF 393 renal) 34.5 µM | GI50 (SK-MEL-28 melanoma) 70.4 µM | GI50 (SF-539 CNS) 21.3 µM | GI50 (RPMI-8226 leukemia) 31.4 µM | GI50 (OVCAR-3 ovarian) > 100 µM | GI50 (HCT-116 colon) 33.7 µM | GI50 (DU-145 prostate) 88 µM | GI50 (SK-OV-3 ovarian) > 100 µM | GI50 (CAKI-1 renal) 34.2 µM | GI50 (ACHN renal) 47.5 µM | GI50 (A498 renal) 28.1 µM | GI50 (U251 CNS) 48.8 µM | GI50 (HL-60(TB) leukemia) 51.9 µM | GI50 (SK-MEL-5 melanoma) 21.3 µM | GI50 (NCI-H226 lung) 63.3 µM | GI50 (MOLT-4 leukemia) 50.7 µM | GI50 (OVCAR-5 ovarian) 50.5 µM
84.1 µM: TGI (HOP-92 NSCLC)
89.1 µM: TGI (MALME-3M melanoma)
62.7 µM: TGI (SF-539 CNS)

C[C@@H]1CN(CC(=O)N2CC(C)(C)c3nc(CO)c(Cc4ccc(F)cc4)cc32)[C@@H](CN2CCOC[C@H]2C)CN1
33.1 µM: TGI (LOX IMVI melanoma)
inactive: GI50 (OVCAR-4 ovarian) 20.6 µM | GI50 (OVCAR-8 ovarian) 32.1 µM | GI50 (LOX IMVI melanoma) 17.5 µM | GI50 (786-0 renal) 47.4 µM | GI50 (MALME-3M melanoma) 16 µM | GI50 (NCI-H460 lung) 45.9 µM | GI50 (IGROV1 ovarian) > 100 µM | GI50 (HCC-2998 colon) 17.1 µM | GI50 (SNB-19 CNS) > 100 µM | GI50 (SR leukemia) 18.9 µM | GI50 (COLO 205 colon) 21.3 µM | GI50 (NCI/ADR-RES ovarian) 75.5 µM | GI50 (M14 melanoma) 18.6 µM | GI50 (UACC-62 melanoma) 23.6 µM | GI50 (HCT-15 colon) 31.4 µM | GI50 (PC-3 prostate) 58.5 µM | GI50 (HT29 colon) 22.2 µM | GI50 (UO-31 renal) > 100 µM | GI50 (CCRF-CEM leukemia) 31.3 µM | GI50 (TK-10 renal) > 100 µM | GI50 (HOP-62 NSCLC) > 100 µM | GI50 (KM12 colon) 46.2 µM | GI50 (MDA-MB-435) 37.1 µM | GI50 (SF-268 CNS) 64.1 µM | GI50 (NCI-H23 lung) 51.8 µM | GI50 (HS 578T breast) 25 µM | GI50 (MDA-MB-231 breast) 2.02 µM | GI50 (MCF7 breast) 37 µM | GI50 (SK-MEL-2 melanoma) 5.01 µM | GI50 (HOP-92 NSCLC) 3.79 µM | GI50 (SW-620 colon) > 100 µM | GI50 (T-47D breast) 17.2 µM | GI50 (SN12C renal) 78.2 µM | GI50 (SNB-75 CNS) 19.7 µM | GI50 (SF-295 CNS) 61.6 µM | GI50 (SK-MEL-28 melanoma) 18.6 µM | GI50 (SF-539 CNS) 6.85 µM | GI50 (UACC-257 melanoma) 15.3 µM | GI50 (NCI-H522 lung) 21.8 µM | GI50 (RPMI-8226 leukemia) 21.9 µM | GI50 (OVCAR-3 ovarian) > 100 µM | GI50 (HCT-116 colon) 36.9 µM | GI50 (DU-145 prostate) 82.1 µM | GI50 (CAKI-1 renal) > 100 µM | GI50 (ACHN renal) > 100 µM | GI50 (EKVX NSCLC) 96.7 µM | GI50 (A498 renal) 25.8 µM | GI50 (U251 CNS) 68.5 µM | GI50 (HL-60(TB) leukemia) 26.6 µM | GI50 (SK-MEL-5 melanoma) 15 µM | GI50 (NCI-H226 lung) > 100 µM | GI50 (MOLT-4 leukemia) 24.4 µM | GI50 (A549 NSCLC) > 100 µM | GI50 (OVCAR-5 ovarian) > 100 µM
0.088 µM: TGI (SK-OV-3 ovarian)
19.7 µM: TGI (HOP-92 NSCLC)
21.8 µM: TGI (MDA-MB-231 breast)
32.4 µM: TGI (HCC-2998 colon)
63.9 µM: TGI (SK-MEL-2 melanoma)
31.1 µM: TGI (MALME-3M melanoma) | TGI (UACC-257 melanoma)
active: GI50 (BT-549 breast) 0.162 µM | GI50 (SK-OV-3 ovarian) 0.0235 µM
47.8 µM: TGI (T-47D breast)
77.9 µM: TGI (MOLT-4 leukemia)
28.3 µM: TGI (SK-MEL-5 melanoma)
76.2 µM: TGI (HL-60(TB) leukemia)
> 100 µM: TGI (OVCAR-4 ovarian) | TGI (OVCAR-8 ovarian) | TGI (786-0 renal) | TGI (NCI-H460 lung) | TGI (IGROV1 ovarian) | TGI (BT-549 breast) | TGI (SNB-19 CNS) | TGI (NCI/ADR-RES ovarian) | TGI (HCT-15 colon) | TGI (PC-3 prostate) | TGI (UO-31 renal) | TGI (CCRF-CEM leukemia) | TGI (TK-10 renal) | TGI (HOP-62 NSCLC) | TGI (KM12 colon) | TGI (MDA-MB-435) | TGI (SF-268 CNS) | TGI (NCI-H23 lung) | TGI (HS 578T breast) | TGI (MCF7 breast) | TGI (SW-620 colon) | TGI (SN12C renal) | TGI (SNB-75 CNS) | TGI (SF-295 CNS) | TGI (OVCAR-3 ovarian) | TGI (HCT-116 colon) | TGI (DU-145 prostate) | TGI (CAKI-1 renal) | TGI (ACHN renal) | TGI (EKVX NSCLC) | TGI (U251 CNS) | TGI (NCI-H226 lung) | TGI (A549 NSCLC) | TGI (OVCAR-5 ovarian)
71.6 µM: TGI (NCI-H522 lung)
73.3 µM: TGI (SR leukemia)
37.9 µM: TGI (M14 melanoma)
65.8 µM: TGI (UACC-62 melanoma)
96.2 µM: TGI (A498 renal)
41.4 µM: TGI (COLO 205 colon)
48 µM: TGI (RPMI-8226 leukemia)
23.6 µM: TGI (SF-539 CNS)
37.5 µM: TGI (SK-MEL-28 melanoma)
49.2 µM: TGI (HT29 colon)
